Measurements taken from US20240197694A1, “MODIFIED PROTEINS AND PROTEIN BINDERS” (Cullgen (Shanghai), Inc., priority 2021, published 2024).

Target: T1, DCAF1 (1058-1396) (Homo sapiens, UniProt Q9Y4B6)
T1 construct: a fragment of a DCAF1 protein that includes amino acid residues A1058 to E1396; His6 (N, cleaved yes); made in house; host or cells: Sf9 insect cells (Bac-to-Bac baculovirus, pFastBacHT vector)
Experiment: Surface plasmon resonance (SPR) binding assay, compound binding to DCAF1
Conditions: immobilized DCAF1 (1058-1396), steady state affinity model, 25° C.
Protocol: Binding affinities of specific exemplary compounds to DCAF1 (1058-1396), which is a fragment of a DCAF1 protein that includes amino acid residues A1058 to E1396 were determined by a surface plasmon resonance (SPR) assay. Briefly, purified DCAF1 (1058-1396) proteins were immobilized at a density of 9,000-11,000 resonance units (RUs) on a CMS sensor chip. Sensorgrams were recorded at different concentrations of compounds in multi-cycle kinetic format. Data were analyzed using a steady state affinity model through Biacore Evaluation Software to provide equivalent dissociation constants (Kd).
Binding affinities of compounds to DCAF1 were determined by a surface plasmon resonance (SPR) assay. Purified DCAF1 (1058-1396) proteins were immobilized on a CMS sensor chip, and a dose range of compound solutions were injected in multi-cycle kinetic format. Data were analyzed using a steady state model to provide equivalent dissociation constants (Kd).
Protein Expression and Purification: Human DCAF1 (1058-1396) (UniPro: Q9Y4B6) coding sequences were cloned into pFastBacHT vector and were expressed in Sf9 cells using Bac-to-Bac baculovirus expression system (Thermo Fisher Scientific). The expression construct for DCAF1 (1058-1396) included a N-terminal His6-tag to facilitate the purification. DCAF1 (1058-1396) proteins were obtained from supernatants of cell lysates and purified through sequential application of Ni affinity chromatography (Ni-NTA column, Bio-Rad), Tag removal using TEV protease, and size-exclusion chromatography (Superdex 200 column, GE Healthcare).
Surface plasmon resonance (SPR) binding assays: SPR studies were performed on a Biacore X100 plus or T200 instrument (GE Healthcare). Immobilization of purified DCAF1 (1058-1396) was carried out at 25° C. using a CMS sensor chip. The surface was pre-equilibrated in HBS-EP running buffer (10 mM HEPES, pH 7.4, 150 mM NaCl, 3 mM EDTA, 0.05% P20), before being activated with EDC/NHS. DCAF1 (1058-1396) was immobilized through amino groups to a density of 9,000-12,000 resonance units (RUs) on flow cell channel 2 (FC2), whereas flow cell channel 1 (FC1) was used as reference. Both DCAF1 immobilized and reference surfaces were deactivated with 1 M ethanolamine.
Interaction experiments were performed at 25° C. The compounds were prepared and serially diluted in HBS-EP running buffer containing final 2% DMSO (6-point two-fold serial dilution, 100 μM -3.125 μM final concentration of compounds). Compound Solutions were injected individually in multi-cycle kinetic format without regeneration (flow rate 30 μL/min, association time 60 s, dissociation time 60 s). Sensorgrams from reference surfaces and blank injections were subtracted from the raw data (double-referenced) and the data was solvent-corrected prior to analysis. Data were analyzed using a steady state affinity model through Biacore Evaluation Software to provide equivalent dissociation constants (Kd).

T1 sequence (Q9Y4B6 1058-1396): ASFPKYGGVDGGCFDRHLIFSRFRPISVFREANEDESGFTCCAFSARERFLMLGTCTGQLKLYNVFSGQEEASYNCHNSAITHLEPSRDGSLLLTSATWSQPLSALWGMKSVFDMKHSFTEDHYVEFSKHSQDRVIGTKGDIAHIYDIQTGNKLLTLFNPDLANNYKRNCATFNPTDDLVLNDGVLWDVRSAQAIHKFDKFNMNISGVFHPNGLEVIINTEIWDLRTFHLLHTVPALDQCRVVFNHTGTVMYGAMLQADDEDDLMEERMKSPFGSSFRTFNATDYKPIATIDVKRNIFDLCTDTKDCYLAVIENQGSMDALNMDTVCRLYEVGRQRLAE

| SMILES | Kd |
| --- | --- |
| c1ncc(CNCc2ccc3cc[nH]c3c2)[nH]1 [CPD-029, N-((1H-imidazol-5-yl)methyl)-1-(1H-indol-6-yl)methanamine] | > 100 µM |
| Clc1cc(CNCc2cnc[nH]2)cc2c1OCO2 [CPD-030, N-((1H-imidazol-5-yl)methyl)-1-(7-chlorobenzo[d][1,3]dioxol-5-yl)methanamine] | > 100 µM |
| OCCOc1ccc(CNCc2cnc[nH]2)cc1 [CPD-031, 2-(4-((((1H-imidazol-5-yl)methyl)amino)methyl)phenoxy)ethan-1-ol] | > 100 µM |
| Cc1ccc(Br)c2[nH]c3c(c12)CN(C)CC3 [CPD-038, 6-bromo-2,9-dimethyl-2,3,4,5-tetrahydro-1H-pyrido[4,3-b]indole] | > 100 µM |
| CCN1CCc2[nH]c3ccccc3c2C1 [CPD-043, 2-ethyl-2,3,4,5-tetrahydro-1H-pyrido[4,3-b]indole] | 40 to 70 µM |
| O=C(CN1CCc2[nH]c3ccc(Cl)cc3c2C1)N1CCOCC1 [CPD-044, 2-(8-chloro-1,3,4,5-tetrahydro-2H-pyrido[4,3-b]indol-2-yl)-1-morpholinoethan-1-one] | 40 to 70 µM |
| c1ccc2c3c([nH]c2c1)CCN(CCc1ccncc1)C3 [CPD-045, 2-(2-(pyridin-4-yl)ethyl)-2,3,4,5-tetrahydro-1H-pyrido[4,3-b]indole] | 40 to 70 µM |
| CN1CCc2[nH]c3ccc(Cl)cc3c2C1 [CPD-046, 8-chloro-2-methyl-2,3,4,5-tetrahydro-1H-pyrido[4,3-b]indole] | > 100 µM |
| COc1cccc2c3c([nH]c12)CCN(C)C3 [CPD-047, 6-methoxy-2-methyl-2,3,4,5-tetrahydro-1H-pyrido[4,3-b]indole] | > 100 µM |
| O=C(CCN1CCc2[nH]c3ccccc3c2C1)N1CCOCC1 [CPD-048, 1-morpholino-3-(1,3,4,5-tetrahydro-2H-pyrido[4,3-b]indol-2-yl)propan-1-one] | ≤ 40 µM |
| O=C(CCN1CCc2[nH]c3ccc(Cl)cc3c2C1)N1CCOCC1 [CPD-049, 3-(8-chloro-1,3,4,5-tetrahydro-2H-pyrido[4,3-b]indol-2-yl)-1-morpholinopropan-1-one] | ≤ 40 µM |
| CNC(=O)NC(=O)CCN1CCc2[nH]c3ccc(Cl)cc3c2C1 [CPD-050, 3-(8-chloro-1,3,4,5-tetrahydro-2H-pyrido[4,3-b]indol-2-yl)-N-(methylcarbamoyl)propanamide] | 70 to 100 µM |
| COC(CN1CCc2[nH]c3ccc(F)cc3c2C1)OC [CPD-051, 2-(2,2-dimethoxyethyl)-8-fluoro-2,3,4,5-tetrahydro-1H-pyrido[4,3-b]indole] | ≤ 40 µM |
| C#CCNC(=O)CCN1CCc2[nH]c3ccc(F)cc3c2C1 [CPD-052, 3-(8-fluoro-1,3,4,5-tetrahydro-2H-pyrido[4,3-b]indol-2-yl)-N-(prop-2-yn-1-yl)propanamide] | 40 to 70 µM |
| Nc1nc(CCN2CCc3[nH]c4ccc(F)cc4c3C2)cs1 [CPD-053, 4-(2-(8-fluoro-1,3,4,5-tetrahydro-2H-pyrido[4,3-b]indol-2-yl)ethyl)thiazol-2-amine] | 40 to 70 µM |
| O=C(O)CCN1CCc2[nH]c3ccc(Br)cc3c2C1 [CPD-054, 3-(8-bromo-1,3,4,5-tetrahydro-2H-pyrido[4,3-b]indol-2-yl)propanoic acid] | > 100 µM |
| Cc1ccc2[nH]c3c(c2c1)CN(CC1(CC(=O)O)CC1)CC3 [CPD-055, 2-(1-((8-methyl-1,3,4,5-tetrahydro-2H-pyrido[4,3-b]indol-2-yl)methyl)cyclopropyl) acetic acid] | > 100 µM |
| Cc1ccc2[nH]c3c(c2c1)CN(CC(O)COc1ccc(C(=O)O)cc1)CC3 (centres unmarked) [CPD-056, 4-(2-hydroxy-3-(8-methyl-1,3,4,5-tetrahydro-2H-pyrido[4,3-b]indol-2-yl)propoxy)benzoic acid] | ≤ 40 µM |

| SMILES | Kd |
| --- | --- |
| CN1CCc2c(c3ccccc3n2-c2ccccc2)C1 [CPD-057, 2-methyl-5-phenyl-2,3,4,5-tetrahydro-1H-pyrido[4,3-b]indole] | > 100 µM |
| CN1CCc2c(c3ccccc3n2Cc2ccccc2)C1 [CPD-058, 5-benzyl-2-methyl-2,3,4,5-tetrahydro-1H-pyrido[4,3-b]indole] | 70 to 100 µM |
| Cc1ccc(CCn2c3c(c4ccccc42)CN(C)CC3)cn1 [CPD-059, 2-methyl-5-(2-(6-methylpyridin-3-yl)ethyl)-2,3,4,5-tetrahydro-1H-pyrido[4,3-b]indole] | 40 to 70 µM |
| CN1CCc2c(c3ccccc3n2CCC(N)=O)C1 [CPD-060, 3-(2-methyl-1,2,3,4-tetrahydro-5H-pyrido[4,3-b]indol-5-yl)propanamide] | 70 to 100 µM |
| Cc1ccc2c(c1)C1CN(C)CCC1N2c1nc(S(=O)(=O)c2ccccc2)c(Cl)s1 (centres unmarked) [CPD-061, 5-chloro-2-(2,8-dimethyl-1,2,3,4,4a,9b-hexahydro-5H-pyrido [4,3-b]indol-5-yl)-4-(phenylsulfonyl)thiazole] | > 100 µM |
| Cc1ccc(S(=O)(=O)c2nc(N3c4ccc(C)cc4C4CN(C)CCC43)sc2Cl)cc1 (centres unmarked) [CPD-062, 5-chloro-2-(2,8-dimethyl-1,2,3,4,4a,9b-hexahydro-5H-pyrido [4,3-b]indol-5-yl)-4-tosylthiazole] | > 100 µM |
| COc1nccc(C(=O)N2c3ccc(C)cc3C3CN(C)CCC32)n1 (centres unmarked) [CPD-063, (2,8-dimethyl-1,2,3,4,4a,9b-hexahydro-5H-pyrido[4,3-b]indol-5-yl)(2-methoxypyrimidin-4-yl)methanone] | > 100 µM |
| COc1cc(C(=O)N2c3ccc(C)cc3C3CN(C)CCC32)ncn1 (centres unmarked) [CPD-064, (2,8-dimethyl-1,2,3,4,4a,9b-hexahydro-5H-pyrido [4,3-b]indol-5-yl)(6-methoxypyrimidin-4-yl)methanone] | > 100 µM |
| Cc1ccc2c(c1)C1CN(C)CCC1N2C(=O)c1cc(F)ccc1Br (centres unmarked) [CPD-065, (2-bromo-5-fluorophenyl) (2,8-dimethyl-1,2,3,4,4a,9b-hexahydro-5H-pyrido[4,3-b]indol-5-yl)methanone] | ≤ 40 µM |
| Cc1ccc2c(c1)C1CN(C)CCC1N2C(=O)c1nc(Cl)ccc1Cl (centres unmarked) [CPD-066, (3,6-dichloropyridin-2-yl) (2,8-dimethyl-1,2,3,4,4a,9b-hexahydro-5H-pyrido[4,3-b]indol-5-yl)methanone] | > 100 µM |
| COc1cc(C)ccc1C(=O)N1c2ccc(C)cc2C2CN(C)CCC21 (centres unmarked) [CPD-067, (2,8-dimethyl-1,2,3,4,4a,9b-hexahydro-5H-pyrido[4,3-b]indol-5-yl)(2-methoxy-4-methylphenyl)methanone] | > 100 µM |
| Cc1ccc2c(c1)C1CN(C)CCC1N2C(=O)c1cc(-n2cccc2)ccn1 (centres unmarked) [CPD-068, (4-(1H-pyrrol-1-yl)pyridin-2-yl)(2,8-dimethyl-1,2,3,4,4a,9b-hexahydro-5H-pyrido[4,3-b]indol-5-yl)methanone] | > 100 µM |
| Cc1ccc2c(c1)C1CN(C)CCC1N2C(=O)c1ccnc(OCC(F)F)c1 (centres unmarked) [CPD-069, (2-(2,2-difluoroethoxy)pyridin-4-yl)(2,8-dimethyl-1,2,3,4,4a,9b-hexahydro-5H-pyrido[4,3-b]indol-5-yl)methanone] | > 100 µM |
| COc1nn(C)cc1C(=O)N1c2ccc(C)cc2C2CN(C)CCC21 (centres unmarked) [CPD-070, (2,8-dimethyl-1,2,3,4,4a,9b-hexahydro-5H-pyrido[4,3-b]indol-5-yl)(3-methoxy-1-methyl-1H-pyrazol-4-yl)methanone] | > 100 µM |
| CCn1nc(C2CC2)cc1C(=O)N1c2ccc(C)cc2C2CN(C)CCC21 (centres unmarked) [CPD-071, (3-cyclopropyl-1-ethyl-1H-pyrazol-5-yl)(2,8-dimethyl-1,2,3,4,4a,9b-hexahydro-5H-pyrido[4,3-b]indol-5-yl)methanone] | > 100 µM |
| Cc1ccc2c(c1)C1CN(C)CCC1N2C(=O)c1cc(C#N)oc1C (centres unmarked) [CPD-072, 4-(2,8-dimethyl-2,3,4,4a,5,9b-hexahydro-1H-pyrido[4,3-b]indole-5-carbonyl)-5-methylfuran-2-carbonitrile] | > 100 µM |
| Cc1ccc2c(c1)C1CN(C)CCC1N2C(=O)c1cc2c(s1)CCCC2 (centres unmarked) [CPD-073, (2,8-dimethyl-1,2,3,4,4a,9b-hexahydro-5H-pyrido[4,3-b]indol-5-yl)(4,5,6,7-tetrahydrobenzo[b]thiophen-2-yl)methanone] | > 100 µM |
